# Experimental data: patent publication US11807835B2, “Detergent compositions containing a stabilized enzyme by phosphonates” (ECOLAB USA INC., priority 2016, dated 2023)
# Tested on: protease
# Assay: Protease activity retention in detergent use solution (4000 ppm, 5 GPG water; peptidyl substrate, glycine buffer pH 9.0)
# Format: biochemical
# Conditions: for Relative Protease Enzyme Activity: use solution at 120° F.
# Description: The enzyme activities in the detergents with different phosphonate levels were tested at 4000 ppm in 5 grains per gallon (GPG) water at 120° F. with various time points collected up to 4 hours, after a use solution was generated from the detergent composition. During the tests, the samples at different time points were collected and immediately frozen in an acetone/dry ice bath and stored in −80° C. before the activity of the enzyme was evaluated. For the use of such an assay, t=0 min was the reference point for 100% enzyme activity.
# Assays of enzyme activity in formulations (% retention) were conducted to simulate a presoak condition in a beaker using the chemistry, temperature, and pH conditions relevant to manual warewash or presoak applications. Enzyme activity is an indicator of the stability of the enzyme in the detergent, specifically in an aqueous use solution within a sump (which is under conditions of high pH, temperature and dilution).
# The analysis by protease assay was conducted as follows. For the assays, a detergent composition was used to generate an aqueous use solution evaluated herein.
# Enzyme activity under presoak or manual warewash conditions was traced quantitatively using a standard protease assay. Samples were prepared under bench top conditions, whereby the use solution from a detergent composition or detergent was obtained and maintained at a presoak or manual warewash temperature in a stirring water bath. After the time course for assessing enzyme stability is initiated, aliquots were taken at various time points and flash-frozen. A time=0 sample was prepared for each series by dissolving the detergent formulation at room temperature, mixing thoroughly, and flash freezing. Samples were thawed and diluted as necessary in an assay buffer usually for use in the protease assay. A glycine buffer at pH 9.0 is used here. The assay monitored the direct reaction of the protease on a small, commercially available peptidyl substrate, with liberation of the product providing correlation to the active enzyme content. The product was detected using a plate reader with an appreciable dynamic range (upper absorbance limit of the instrument >3.5). Enzyme activity levels were assessed relative to a calibration curve with average values for replicate tests used to map protease stability under presoak or manual warewash use conditions. Enzyme retention at each time point was calculated as the % enzyme activity relative to the time=0 sample.
# [1] = base formula, phosphonate 0.3 wt-%, lower half of Table 4A, time 5
# [2] = base formula, phosphonate 0.3 wt-%, lower half of Table 4A, time 20
# [3] = base formula, phosphonate 0.3 wt-%, lower half of Table 4A, time 90
# [4] = base formula, phosphonate 0.3 wt-%, lower half of Table 4A, time 120
# [5] = base formula, phosphonate 0.3 wt-%, lower half of Table 4A, time 150, unit not given
# [6] = base formula, phosphonate 0.3 wt-%, lower half of Table 4A, time 210
# [7] = base formula, phosphonate 0.3 wt-%, lower half of Table 4A, time '0'
# [8] = base formula, phosphonate 0.3 wt-%, lower half of Table 4A, time '40'
# [9] = base formula, phosphonate 0.3 wt-%, lower half of Table 4A, time 'Blank'
# [10] = base formula, phosphonate 0.3 wt-%, lower half of Table 4A, time row printed '10'
# [11] = base formula, phosphonate 0.3 wt-%, lower half of Table 4A, time row printed '60'
# [12] = base formula, phosphonate 0.3 wt-%, lower half of Table 4A, time row printed '180'
# [13] = base formula, phosphonate 0.6 wt-%, time 0 min
# [14] = base formula, phosphonate 0.6 wt-%, time 5 min
# [15] = base formula, phosphonate 0.6 wt-%, time 10 min
# [16] = base formula, phosphonate 0.6 wt-%, time 20 min
# [17] = base formula, phosphonate 0.6 wt-%, time 40 min
# [18] = base formula, phosphonate 0.6 wt-%, time 90 min
# [19] = base formula, phosphonate 0.6 wt-%, time 120 min
# [20] = base formula, phosphonate 0.6 wt-%, time 150 min
# [21] = base formula, phosphonate 0.6 wt-%, time 180 min
# [22] = base formula, phosphonate 0.6 wt-%, time 210 min
# [23] = base formula, phosphonate 0.6 wt-%, time 240 min
# [24] = base formula, phosphonate at 0.1% elemental phosphorus, time 0 min
# [25] = base formula, phosphonate at 0.1% elemental phosphorus, time 5 min
# [26] = base formula, phosphonate at 0.1% elemental phosphorus, time 10 min
# [27] = base formula, phosphonate at 0.1% elemental phosphorus, time 20 min
# [28] = base formula, phosphonate at 0.1% elemental phosphorus, time 40 min
# [29] = base formula, phosphonate at 0.1% elemental phosphorus, time 60 min
# [30] = base formula, phosphonate at 0.1% elemental phosphorus, time 90 min
# [31] = base formula, phosphonate at 0.1% elemental phosphorus, time 120 min
# [32] = base formula, phosphonate at 0.1% elemental phosphorus, time 150 min
# [33] = base formula, phosphonate at 0.1% elemental phosphorus, time 180 min
# [34] = base formula, phosphonate at 0.1% elemental phosphorus, time 210 min
# [35] = base formula, phosphonate at 0.1% elemental phosphorus, time 240 min
# [36] = base formula, phosphonate 0.6 wt-%, time 60 min
substance,measurement,setting,value
Diglycolamine phosphonate [DGAP],Relative Protease Enzyme Activity,"All Ash formula, phosphonate 0.3 wt-%, time 0 min",100.00%
same,Relative Protease Enzyme Activity,"All Ash formula, phosphonate 0.3 wt-%, time 5 min",81.79%
same,Relative Protease Enzyme Activity,"All Ash formula, phosphonate 0.3 wt-%, time 10 min",75.39%
same,Relative Protease Enzyme Activity,"All Ash formula, phosphonate 0.3 wt-%, time 20 min",59.47%
same,Relative Protease Enzyme Activity,"All Ash formula, phosphonate 0.3 wt-%, time 40 min",39.98%
same,Relative Protease Enzyme Activity,"All Ash formula, phosphonate 0.3 wt-%, time 60 min",27.49%
same,Relative Protease Enzyme Activity,"All Ash formula, phosphonate 0.3 wt-%, time 90 min",18.95%
same,Relative Protease Enzyme Activity,"All Ash formula, phosphonate 0.3 wt-%, time 120 min",12.48%
same,Relative Protease Enzyme Activity,"All Ash formula, phosphonate 0.3 wt-%, time 150 min",10.56%
same,Relative Protease Enzyme Activity,"All Ash formula, phosphonate 0.3 wt-%, time 180 min",9.69%
same,Relative Protease Enzyme Activity,"All Ash formula, phosphonate 0.3 wt-%, time 210 min",7.02%
same,Relative Protease Enzyme Activity,"All Ash formula, phosphonate 0.3 wt-%, time 240 min",6.34%
same,protease stability in all ash formula,"all ash formula, versus same composition with PBTC or HEDP without amine(s), FIG. 2D",more stable
same,Relative Protease Enzyme Activity,[1],98.30%
same,Relative Protease Enzyme Activity,[2],91.75%
same,Relative Protease Enzyme Activity,[3],84.87%
same,Relative Protease Enzyme Activity,[4],82.96%
same,Relative Protease Enzyme Activity,[5],82.44%
same,Relative Protease Enzyme Activity,[6],76.14%
same,Relative Protease Enzyme Activity,[7],100.00%
same,Relative Protease Enzyme Activity,[8],89.16%
same,Relative Protease Enzyme Activity,[9],100.00%
same,Relative Protease Enzyme Activity,[10],92.44%
same,Relative Protease Enzyme Activity,[11],79.16%
same,Relative Protease Enzyme Activity,[12],75.52%
same,Relative Protease Enzyme Activity,[13],100.00%
same,Relative Protease Enzyme Activity,[14],105.28%
same,Relative Protease Enzyme Activity,[15],100.03%
same,Relative Protease Enzyme Activity,[16],101.24%
same,Relative Protease Enzyme Activity,[17],100.88%
same,Relative Protease Enzyme Activity,[18],98.76%
same,Relative Protease Enzyme Activity,[19],93.04%
same,Relative Protease Enzyme Activity,[20],88.27%
same,Relative Protease Enzyme Activity,[21],86.23%
same,Relative Protease Enzyme Activity,[22],88.24%
same,Relative Protease Enzyme Activity,[23],89.57%
same,Relative Protease Enzyme Activity,[24],100.00%
same,Relative Protease Enzyme Activity,[25],98.29%
same,Relative Protease Enzyme Activity,[26],103.47%
same,Relative Protease Enzyme Activity,[27],101.47%
same,Relative Protease Enzyme Activity,[28],88.60%
same,Relative Protease Enzyme Activity,[29],86.17%
same,Relative Protease Enzyme Activity,[30],85.84%
same,Relative Protease Enzyme Activity,[31],83.06%
same,Relative Protease Enzyme Activity,[32],81.53%
same,Relative Protease Enzyme Activity,[33],76.41%
same,Relative Protease Enzyme Activity,[34],74.23%
same,Relative Protease Enzyme Activity,[35],72.01%
Monoethanolamine phosphonate [MEAP],Relative Protease Enzyme Activity,[1],98.29%
same,Relative Protease Enzyme Activity,[2],90.19%
same,Relative Protease Enzyme Activity,[3],72.58%
same,Relative Protease Enzyme Activity,[4],68.59%
same,Relative Protease Enzyme Activity,[5],63.56%
same,Relative Protease Enzyme Activity,[6],60.60%
same,Relative Protease Enzyme Activity,[7],103.02%
same,Relative Protease Enzyme Activity,[8],82.48%
same,Relative Protease Enzyme Activity,[9],100.00%
same,Relative Protease Enzyme Activity,[10],96.59%
same,Relative Protease Enzyme Activity,[11],79.14%
same,Relative Protease Enzyme Activity,[12],58.70%
same,Relative Protease Enzyme Activity,[13],100.00%
same,Relative Protease Enzyme Activity,[14],106.85%
same,Relative Protease Enzyme Activity,[15],101.06%
same,Relative Protease Enzyme Activity,[16],104.08%
same,Relative Protease Enzyme Activity,[17],95.75%
same,Relative Protease Enzyme Activity,[36],95.13%
same,Relative Protease Enzyme Activity,[18],86.12%
same,Relative Protease Enzyme Activity,[19],85.48%
same,Relative Protease Enzyme Activity,[20],80.22%
same,Relative Protease Enzyme Activity,[21],82.71%
same,Relative Protease Enzyme Activity,[22],70.64%
same,Relative Protease Enzyme Activity,[23],72.77%
same,Relative Protease Enzyme Activity,[24],100.00%
same,Relative Protease Enzyme Activity,[25],119.22%
same,Relative Protease Enzyme Activity,[26],118.42%
same,Relative Protease Enzyme Activity,[27],113.68%
same,Relative Protease Enzyme Activity,[28],108.32%
same,Relative Protease Enzyme Activity,[29],105.97%
same,Relative Protease Enzyme Activity,[30],95.99%
same,Relative Protease Enzyme Activity,[31],91.30%
same,Relative Protease Enzyme Activity,[32],82.74%
same,Relative Protease Enzyme Activity,[33],81.94%
same,Relative Protease Enzyme Activity,[34],79.85%
same,Relative Protease Enzyme Activity,[35],75.73%
Polyamino Polyether Methylene Phosphonic Acid [PAPEMP],Relative Protease Enzyme Activity,[1],107.31%
same,Relative Protease Enzyme Activity,[2],105.51%
same,Relative Protease Enzyme Activity,[3],96.21%
same,Relative Protease Enzyme Activity,[4],99.48%
same,Relative Protease Enzyme Activity,[5],93.74%
same,Relative Protease Enzyme Activity,[6],92.79%
same,Relative Protease Enzyme Activity,[7],100.00%
same,Relative Protease Enzyme Activity,[8],100.17%
same,Relative Protease Enzyme Activity,[9],100.00%
same,Relative Protease Enzyme Activity,[10],109.98%
same,Relative Protease Enzyme Activity,[11],89.50%
same,Relative Protease Enzyme Activity,[12],86.60%
same,Relative Protease Enzyme Activity,[13],100.00%
same,Relative Protease Enzyme Activity,[14],98.49%
same,Relative Protease Enzyme Activity,[15],96.69%
same,Relative Protease Enzyme Activity,[16],93.71%
same,Relative Protease Enzyme Activity,[17],92.60%
same,Relative Protease Enzyme Activity,[36],92.60%
same,Relative Protease Enzyme Activity,[18],86.28%
same,Relative Protease Enzyme Activity,[19],88.30%
same,Relative Protease Enzyme Activity,[20],89.66%
same,Relative Protease Enzyme Activity,[21],86.90%
same,Relative Protease Enzyme Activity,[22],87.49%
same,Relative Protease Enzyme Activity,[23],86.53%
same,Relative Protease Enzyme Activity,[24],100.00%
same,Relative Protease Enzyme Activity,[25],95.74%
same,Relative Protease Enzyme Activity,[26],95.47%
same,Relative Protease Enzyme Activity,[27],92.78%
same,Relative Protease Enzyme Activity,[28],86.55%
same,Relative Protease Enzyme Activity,[29],87.49%
same,Relative Protease Enzyme Activity,[30],86.61%
same,Relative Protease Enzyme Activity,[31],86.34%
same,Relative Protease Enzyme Activity,[32],84.01%
same,Relative Protease Enzyme Activity,[33],71.92%
same,Relative Protease Enzyme Activity,[34],80.74%
same,Relative Protease Enzyme Activity,[35],79.08%
